Molecules are shown by their SMILES.

The record followed here is US20170315136A9, “BIOMARKER ASSAY OF NEUROLOGICAL CONDITION” (priority 2009, published 2017).

Data set [1] has as its system Female Sprague-Dawley rats. The conditions noted are these: for GFAP levels / SBDP150 levels / UCH-L1 levels: biofluid, 30, 60, 90, 120 minutes following dosing. How it is done:
Acute oral In vivo drug candidate screening for neurotoxicity. […] A total of four to eight animals of are used for each dose level investigated.
At 30, 60, 90, and 120 minutes following dosing, the rats are sacrificed by decapitation and blood is obtained by cardiac puncture. The levels of biofluid UCH-L1 and SBDP 150 and GFAP are analyzed by sandwich ELISA or western blot by using UCH-L1 and SBDP 150 and GFAP specific antibodies.

In data set [2] the test system is Mouse, rat cortical or hippocampal primary neurons. The data set can be described thus: In vitro drug candidate screening for neurotoxicity (ELISA of cell lysates). The class given is cell-based. The conditions noted are these: primary neurons 21 DIV; Glutamate 0.01 to 1000 μM for 30 minutes, H2O2 0.001 to 1000 μM for 24 hours; lysates by ELISA. How it is done: In vitro drug candidate screening for neurotoxicity. Mouse, rat cortical or hippocampal primary neurons are cultured for 21 DIV, and the dose dependent responses of drugs are investigated. Cultured cells are exposed to various concentrations of: Glutamate (0.01 to 1000 μM) in 10 μM glycine both in HBSS; B) 0.01 to 100 μM Kainate in culture media; C) H2O2 (0.001 to 1000 μM) in culture media; C) Zinc (0.01 to 1000 μM) in culture media; D) U0126 (0.001 to 100 μM) in culture media; and E) and equal volume of culture media as a control. Glutamate treatment is performed for 30 minutes after which the cells are washed and the HBSS is replaced with culture media and analyzed. The remaining candidates are treated for 24 hours and analyzed. The levels of intracellular UCH-L1 and SBDP 145 are analyzed following cell lysis and screening of the lysates by ELISA using anti-UCH-L1 and SBDP 145 specific antibodies. The levels of UCH-L1 are increased following exposure particularly to Glutamate and H2O2.
A general note: An ELISA detects its analyte on a solid surface through an enzyme-linked reagent.

On to `CN1CC=C(c2ccccc2)CC1` [MPTP], for which, in data set [1], the GFAP levels result is given as “increase”, the SBDP150 levels result is “increase” and the UCH-L1 levels result is on record as “increase”.
With `OO` [H2O2], in data set [2], the “levels of intracellular UCH-L1” value is recorded as “increased”.
Take `C[C@]12N[C@H](Cc3ccccc31)c1ccccc12` [dizocilpine]: in data set [1], the GFAP levels result was “increase”, the SBDP150 levels entry was “increase” and the UCH-L1 levels result is recorded as “increase”.
`N[C@@H](CCC(=O)O)C(=O)O` [Glutamate]: the “levels of intracellular UCH-L1” value in data set [2] is “increased”.
Regarding `CN[C@@H](C)Cc1ccccc1` [methamphetamine], in data set [1] (rat, in vivo), the “CSF concentration of GFAP” value is recorded as “increase”, the “CSF concentration of SBDP 150” value is given as “increase” and the “CSF concentration of UCH-L1” value was “increase”.
For `C=C(C)[C@H]1CN[C@H](C(=O)O)[C@H]1CC(=O)O` [kainic acid], in data set [1], the GFAP levels result was “increase”, the SBDP150 levels entry is “increase” and the UCH-L1 levels entry is recorded as “increase”.
Regarding `N.N.[Cl][Pt][Cl]` [Cisplatin, cisplatin], in data set [1], the GFAP levels entry is reported as “increase”, the SBDP150 levels result is recorded as “increase” and the UCH-L1 levels entry is listed as “increase”.
